Test results: PubChem BioAssay AID330 (DTP/NCI, 2004)
“And” between values parts separate entries of the source, which are not always exact repeats. Equal values may be shown once. Toxic doses and inconclusive results are not listed. How the source made its calls: active means survival T/C of 150% or more; inactive means T/C below 125% in these data.

Tested on: P388 leukemia ip, CD2F1 mice, survival T/C
Experiment: NCI In Vivo Anticancer Drug Screen. Data for tumor model P388 Leukemia (intraperitoneal) in CD2F1 (CDF1) mice
Conditions: endpoint: median survival time, higher = longer survival
Method in brief: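 Mice carrying the transplanted tumor received test compound or vehicle. Survival was recorded in each group, and the value is the treated-group measurement divided by that of the vehicle-treated control group.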

[1] = dose: 100.0 mg/kg/injection, schedule: Q01DX009 (ip), vehicle: saline
[2] = dose: 60.0 mg/kg/injection, schedule: Q01DX005 (ip), vehicle: Klucel (hydroxypropylcellulose) (HPC)
[3] = dose: 120.0 mg/kg/injection, schedule: Q01DX005 (ip), vehicle: Klucel (hydroxypropylcellulose) (HPC)
[4] = dose: 240.0 mg/kg/injection, schedule: Q01DX005 (ip), vehicle: Klucel (hydroxypropylcellulose) (HPC)
[5] = dose: 50.0 mg/kg/injection, schedule: Q01DX005 (ip), vehicle: saline with Tween-80
[6] = dose: 100.0 mg/kg/injection, schedule: Q01DX005 (ip), vehicle: saline with Tween-80
[7] = dose: 200.0 mg/kg/injection, schedule: Q01DX005 (ip), vehicle: saline with Tween-80
[8] = dose: 100.0 mg/kg/injection, schedule: Q04DX003 (ip), vehicle: Klucel (hydroxypropylcellulose) (HPC)
[9] = dose: 200.0 mg/kg/injection, schedule: Q04DX003 (ip), vehicle: Klucel (hydroxypropylcellulose) (HPC)
[10] = dose: 400.0 mg/kg/injection, schedule: Q04DX003 (ip), vehicle: Klucel (hydroxypropylcellulose) (HPC)
[11] = dose: 50.0 mg/kg/injection, schedule: Q01DX009 (ip), vehicle: Klucel (hydroxypropylcellulose) (HPC)
[12] = dose: 100.0 mg/kg/injection, schedule: Q01DX009 (ip), vehicle: Klucel (hydroxypropylcellulose) (HPC)
[13] = dose: 200.0 mg/kg/injection, schedule: Q01DX009 (ip), vehicle: Klucel (hydroxypropylcellulose) (HPC)
[14] = dose: 50.0 mg/kg/injection, schedule: Q01DX005 (ip), vehicle: Klucel (hydroxypropylcellulose) (HPC)
[15] = dose: 100.0 mg/kg/injection, schedule: Q01DX005 (ip), vehicle: Klucel (hydroxypropylcellulose) (HPC)
[16] = dose: 200.0 mg/kg/injection, schedule: Q01DX005 (ip), vehicle: Klucel (hydroxypropylcellulose) (HPC)
[17] = dose: 200.0 mg/kg/injection, schedule: Q01DX009 (ip), vehicle: saline
[18] = dose: 25.0 mg/kg/injection, schedule: Q01DX009 (ip), vehicle: Klucel (hydroxypropylcellulose) (HPC)

Measured: T/C

CCCCCn1c(C)cc(/C=C\c2ccc3cc(C)ccc3[n+]2C)c1C
inactive: dose: 0.5 mg/kg/injection, schedule: Q04DX003 (ip), vehicle: saline 118 % of control | dose: 1.0 mg/kg/injection, schedule: Q04DX003 (ip), vehicle: saline 109 % of control | dose: 2.0 mg/kg/injection, schedule: Q04DX003 (ip), vehicle: saline 109 % of control

CCSC(=S)N=Nc1c(O)n(C)c2ccccc12
inactive: dose: 50.0 mg/kg/injection, schedule: Q01DX009 (ip), vehicle: saline 93 % of control | [1] 94 % of control

Cc1ccc(NC(=O)N(NC(=O)NNc2ccccc2)c2ccccc2)c(C)c1
inactive: dose: 50.0 mg/kg/injection, schedule: Q01DX009 (ip), vehicle: saline with Tween-80 99 % of control | dose: 100.0 mg/kg/injection, schedule: Q01DX009 (ip), vehicle: saline with Tween-80 93 % of control | dose: 200.0 mg/kg/injection, schedule: Q01DX009 (ip), vehicle: saline with Tween-80 92 % of control

Cc1cc(N=Nc2ccc(-c3ccc(N=Nc4ccc(O)c(C(=O)O)c4)cc3)cc2)c(N)c(N=Nc2cc(C(=O)O)ccc2Cl)c1N
inactive: dose: 50.0 mg/kg/injection, schedule: Q01DX005 (ip), vehicle: saline 104 % of control | dose: 100.0 mg/kg/injection, schedule: Q01DX005 (ip), vehicle: saline 104 % of control | dose: 200.0 mg/kg/injection, schedule: Q01DX005 (ip), vehicle: saline 90 % of control

C=CCSc1n[nH]c(-c2cccs2)n1
inactive: dose: 30.0 mg/kg/injection, schedule: Q01DX005 (ip), vehicle: Klucel (hydroxypropylcellulose) (HPC) 104 % of control | [2] 109 % of control | [3] 109 % of control | [4] 109 % of control

CSc1nc(NC2OC(CO)C(O)C(O)C2O)c(C(=O)CCl)c(=O)n1C (stereo not drawn)
inactive: [5] 93 % of control | [6] 91 % of control | [7] 90 % of control

COCC1(C)CCCC2(C)C3=C(CCC(=O)C3)CCC12 (stereo not drawn)
inactive: [8] 99 % of control | [9] 101 % of control | [10] 96 % of control

Cc1noc2c1N=C(c1ccccc1O)CC(c1ccccc1)C2 (stereo not drawn)
inactive: [11] 100 % of control | [12] 110 % of control | [13] 99 % of control

O=[N+]([O-])c1ccc2c(c1)nc(-c1ccccn1)n2CCc1ccccn1
inactive: [8] 107 % of control | [9] 101 % of control | [10] 107 % of control

COc1ccccc1P(C)(=O)c1ccccc1 (stereo not drawn)
inactive: [14] 102 % of control | [15] 103 % of control | [16] 98 % of control

CCCCNC(=O)OCc1ccc(NCCN(CC)CC)c2c(=O)c3ccccc3sc12
inactive: dose: 1.56 mg/kg/injection, schedule: Q01DX005 (ip), vehicle: distilled water + Tween-80 105 % of control and 97 % of control | dose: 3.12 mg/kg/injection, schedule: Q01DX005 (ip), vehicle: distilled water + Tween-80 102 % of control and 112 % of control and 119 % of control | dose: 6.25 mg/kg/injection, schedule: Q01DX005 (ip), vehicle: distilled water + Tween-80 101 % of control and 111 % of control

O=C1CC2c3c(OCc4ccccc4)cc(OCc4ccccc4)cc3OC2O1 (stereo not drawn)
inactive: dose: 8.75 mg/kg/injection, schedule: Q01DX005 (ip), vehicle: Klucel (hydroxypropylcellulose) (HPC) 88 % of control | dose: 17.5 mg/kg/injection, schedule: Q01DX005 (ip), vehicle: Klucel (hydroxypropylcellulose) (HPC) 91 % of control | dose: 35.0 mg/kg/injection, schedule: Q01DX005 (ip), vehicle: Klucel (hydroxypropylcellulose) (HPC) 88 % of control

COC1=C(OC)C(=O)C2=C(OCCCCO2)C1=O
inactive: dose: 15.0 mg/kg/injection, schedule: Q01DX005 (ip), vehicle: saline with Tween-80 104 % of control | dose: 30.0 mg/kg/injection, schedule: Q01DX005 (ip), vehicle: saline with Tween-80 103 % of control | dose: 60.0 mg/kg/injection, schedule: Q01DX005 (ip), vehicle: saline with Tween-80 101 % of control and 107 % of control | dose: 120.0 mg/kg/injection, schedule: Q01DX005 (ip), vehicle: saline with Tween-80 100 % of control | dose: 240.0 mg/kg/injection, schedule: Q01DX005 (ip), vehicle: saline with Tween-80 99 % of control

CC(=O)[C@H]1CC[C@H]2[C@@H]3C[C@H](C)C4=CC(=O)CC[C@]4(C)[C@@]3(F)[C@@H](O)C[C@]12C
inactive: dose: 100.0 mg/kg/injection, schedule: Q04DX003 (ip), vehicle: saline with Tween-80 95 % of control | dose: 200.0 mg/kg/injection, schedule: Q04DX003 (ip), vehicle: saline with Tween-80 87 % of control | dose: 400.0 mg/kg/injection, schedule: Q04DX003 (ip), vehicle: saline with Tween-80 100 % of control

O=Cc1c2ccc(Cl)cc2nc2cc(Cl)ccc12
inactive: dose: 25.0 mg/kg/injection, schedule: Q01DX001 (ip), vehicle: saline with Tween-80 100 % of control | dose: 50.0 mg/kg/injection, schedule: Q01DX001 (ip), vehicle: saline with Tween-80 90 % of control | dose: 100.0 mg/kg/injection, schedule: Q01DX001 (ip), vehicle: saline with Tween-80 100 % of control

O=C(O)CC12CC3CC(CC(O)(C3)C1)C2
inactive: [11] 100 % of control | [12] 109 % of control | [13] 90 % of control

CN1c2ccccc2C2CCCCC21 (stereo not drawn)
inactive: [5] 100 % of control | [6] 99 % of control | [7] 111 % of control

COCCOCCOCCOCCOCCOCCOCCOC(=O)Nc1ccc(C)c(NC(=O)OCCOCCOCCOCCOCCOCCOCCOC)c1
inactive: [1] 109 % of control | [17] 109 % of control | dose: 400.0 mg/kg/injection, schedule: Q01DX009 (ip), vehicle: saline 95 % of control

Cc1ccc(S(=O)(=O)OCCN(CCN(CCOS(=O)(=O)c2ccc(C)cc2)c2ccccc2)c2ccccc2)cc1
inactive: [8] 99 % of control | [9] 110 % of control | [10] 101 % of control

COc1ccccc1[B-]12OCC[N+]1(CNC(=O)C1=C(O)C3(O)C(=O)C4=C(O)c5c(O)cccc5C(C)(O)C4CC3C(N(C)C)C1=O)CCO2 (stereo not drawn)
inactive: [14] 105 % of control | [15] 108 % of control | [16] 112 % of control

Cc1ccc(OP(=O)(Oc2ccc(C)cc2)Oc2ccc(C)cc2)cc1.Cc1ccc(OP(=O)(Oc2ccc(C)cc2)Oc2ccc(C)cc2)cc1.[Cl][Cu][Cl]
inactive: dose: 12.5 mg/kg/injection, schedule: Q04DX003 (ip), vehicle: Klucel (hydroxypropylcellulose) (HPC) 99 % of control | dose: 25.0 mg/kg/injection, schedule: Q04DX003 (ip), vehicle: Klucel (hydroxypropylcellulose) (HPC) 96 % of control | dose: 50.0 mg/kg/injection, schedule: Q04DX003 (ip), vehicle: Klucel (hydroxypropylcellulose) (HPC) 99 % of control

CCC(=O)NC(Cc1cccs1)C(=O)O (stereo not drawn)
inactive: dose: 6.25 mg/kg/injection, schedule: Q01DX009 (ip), vehicle: saline 107 % of control | dose: 12.5 mg/kg/injection, schedule: Q01DX009 (ip), vehicle: saline 105 % of control | dose: 25.0 mg/kg/injection, schedule: Q01DX009 (ip), vehicle: saline 93 % of control | [1] 88 % of control | [17] 91 % of control

CN(C)CCC(=O)C(=Cc1ccccc1Cl)C(=O)CCN(C)C
inactive: dose: 60.0 mg/kg/injection, schedule: Q01DX005 (ip), vehicle: saline 105 % of control | dose: 120.0 mg/kg/injection, schedule: Q01DX005 (ip), vehicle: saline 106 % of control | dose: 240.0 mg/kg/injection, schedule: Q01DX005 (ip), vehicle: saline 105 % of control

C/C=C\C#C/C=C1/C=CC(=O)O1
inactive: dose: 12.5 mg/kg/injection, schedule: Q01DX009 (ip), vehicle: Klucel (hydroxypropylcellulose) (HPC) 105 % of control | [18] 105 % of control | [11] 108 % of control | [12] 108 % of control

O=C1c2ccccc2CCCC12OC2c1cccnc1 (stereo not drawn)
inactive: [18] 100 % of control | [11] 100 % of control | [12] 104 % of control

O=C(NC1(N2CCOCC2)CC1)c1ccc(Cl)cc1
inactive: [2] 88 % of control | [3] 103 % of control | [4] 103 % of control
